In patent publication US8030478B2, “Method for nucleic acid replication and novel artificial base pairs” (priority 2005, dated 2011):
Where two headings read alike, the source gives them in different places.

Target: T7 RNA polymerase (Escherichia phage T7, UniProt P00573)
Details: for Composition of nucleotide incorporated as 5′ neighbor of U: Ap / Composition of nucleotide incorporated as 5′ neighbor of U: Gp / Composition of nucleotide incorporated as 5′ neighbor of U: Np (Dsp) / Composition of nucleotide incorporated as 5′ neighbor of U: Up / Composition of nucleotide incorporated as 5′ neighbor of U: Cp: [α-32P]UTP; for Composition of nucleotide incorporated as 5′ neighbor of A: Up / Composition of nucleotide incorporated as 5′ neighbor of A: Np (Dsp) / Composition of nucleotide incorporated as 5′ neighbor of A: Ap / Composition of nucleotide incorporated as 5′ neighbor of A: Gp / Composition of nucleotide incorporated as 5′ neighbor of A: Cp: [α-32P]ATP; for Composition of nucleotide incorporated as 5′ neighbor of A: Cp: theoretical [7]
[1] = Entry 14, template temp35Pa-4, natural NTP 1 mM, Ds 1 mM, theoretical [0]
[2] = Entry 14, template temp35Pa-4, natural NTP 1 mM, Ds 1 mM, theoretical [1]
[3] = Entry 15, template temp35Pa-4, natural NTP 1 mM, Ds 3 mM, theoretical [0]
[4] = Entry 15, template temp35Pa-4, natural NTP 1 mM, Ds 3 mM, theoretical [1]
[5] = Entry 16, template temp35Pa′-4, natural NTP 1 mM, Ds 1 mM, theoretical [0]
[6] = Entry 16, template temp35Pa′-4, natural NTP 1 mM, Ds 1 mM, theoretical [1]
[7] = Entry 17, template temp35Pa′-4, natural NTP 1 mM, Ds 3 mM, theoretical [0]
[8] = Entry 17, template temp35Pa′-4, natural NTP 1 mM, Ds 3 mM, theoretical [1]
[9] = Entry 18, template temp35C-4, natural NTP 1 mM, Ds 1 mM, theoretical [0]
[10] = Entry 18, template temp35C-4, natural NTP 1 mM, Ds 1 mM, theoretical [1]
[11] = Entry 19, template temp35C-4, natural NTP 1 mM, Ds 3 mM, theoretical [0]
[12] = Entry 19, template temp35C-4, natural NTP 1 mM, Ds 3 mM, theoretical [1]
[13] = Entry 20, template temp35T-4, natural NTP 1 mM, Ds 1 mM, theoretical [0]
[14] = Entry 20, template temp35T-4, natural NTP 1 mM, Ds 1 mM, theoretical [1]
[15] = Entry 21, template temp35T-4, natural NTP 1 mM, Ds 3 mM, theoretical [0]
[16] = Entry 21, template temp35T-4, natural NTP 1 mM, Ds 3 mM, theoretical [1]
[17] = Entry 29, template DNA14, natural NTP 2 mM, Ds 2 mM, theoretical [6]
[18] = Entry 31, template DNAcont4, natural NTP 2 mM, Ds 2 mM, theoretical [6]
[19] = Entry 36, template DNA13, natural NTP 2 mM, Ds 2 mM, theoretical [4]
[20] = Entry 37, template DNA14, natural NTP 2 mM, Ds 2 mM, theoretical [4]
[21] = Entry 39, template DNAcont4, natural NTP 2 mM, Ds 2 mM, theoretical [4]

T7 RNA polymerase, sequence (P00573 whole entry): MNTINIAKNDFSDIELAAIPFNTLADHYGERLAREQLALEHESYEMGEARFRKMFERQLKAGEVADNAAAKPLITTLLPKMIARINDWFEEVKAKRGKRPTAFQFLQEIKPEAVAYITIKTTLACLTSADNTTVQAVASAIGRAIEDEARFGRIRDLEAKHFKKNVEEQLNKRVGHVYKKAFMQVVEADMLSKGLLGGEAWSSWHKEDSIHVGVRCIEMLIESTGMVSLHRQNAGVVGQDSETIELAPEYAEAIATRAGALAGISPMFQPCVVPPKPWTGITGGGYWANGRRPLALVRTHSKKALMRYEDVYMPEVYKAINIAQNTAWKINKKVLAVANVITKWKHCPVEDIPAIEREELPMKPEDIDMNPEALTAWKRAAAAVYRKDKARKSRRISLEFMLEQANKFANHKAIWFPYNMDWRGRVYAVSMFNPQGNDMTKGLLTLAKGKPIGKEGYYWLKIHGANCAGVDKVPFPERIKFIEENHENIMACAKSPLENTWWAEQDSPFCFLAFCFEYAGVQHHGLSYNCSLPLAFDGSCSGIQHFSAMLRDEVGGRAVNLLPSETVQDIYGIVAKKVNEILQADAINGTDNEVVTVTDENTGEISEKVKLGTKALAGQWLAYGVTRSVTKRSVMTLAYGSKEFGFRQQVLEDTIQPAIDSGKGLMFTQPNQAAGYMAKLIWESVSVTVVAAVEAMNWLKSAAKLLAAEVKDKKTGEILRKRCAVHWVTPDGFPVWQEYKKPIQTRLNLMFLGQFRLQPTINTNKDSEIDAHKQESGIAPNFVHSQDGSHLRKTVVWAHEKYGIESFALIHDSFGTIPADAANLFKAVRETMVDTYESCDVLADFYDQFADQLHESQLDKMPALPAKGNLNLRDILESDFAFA
Description: Transcription (20 μl) was accomplished in 40 mM Tris-HCl buffer (pH 8.0) containing 24 mM MgCl2, 2 mM spermidine, 5 mM DTT, 0.01% Triton X-100, 1-3 mM each natural NTP, 0-3 mM Pa′TP, 0-3 mM DsTP, 10 mM GMP, 2 μM template DNA (for 17-mer transcript synthesis) or 0.5 μM template DNA (for tRNA transcript synthesis), and 2.5 units/μl T7 RNA polymerase (TAKARA). […] For nucleotide composition analysis in transcripts (Non-patent Documents 17 and 33), the transcripts were internally labeled with 2 μCi [α-^32P]UTP or [α-^32P]ATP (Amersham). After the transcription, the products were digested with 0.75 units of RNase T2 at 37° C. for 2 hours in 10 μl of 15 mM sodium acetate buffer (pH 4.5). For 17-mer analysis, 0.05 A260 units of E. coli tRNA (Sigma) was added to the digestion reaction solution. The digestion products were analyzed by 2D-TLC (HPTLC plate, 100×100 mm, Merck). The developing solvents used for the first and second dimensions were isobutyric acid-ammonia-water (66:1:33 v/v/v) and isopropyl alcohol-HCl-water (70:15:15 v/v/v or 75:15:10 v/v/v for Pa′ transcripts), respectively. Spots of the labeled nucleotides on the TLC plate were analyzed with a bio-imaging analyzer.
The internally ^32P-labeled transcripts were digested with Rnase T2, and the resulting labeled nucleoside 3′-monophosphates were analyzed by 2D thin-layer chromatography (2D-TLC).

O=P(O)(O)OP(=O)(O)OP(=O)(O)OC[C@H]1O[C@@H](n2cnc3c(-c4cccs4)ccnc32)[C@H](O)[C@@H]1O [DsTP, 7-(2-Thienyl)-3-(β-D-ribofuranosyl)-3H-imidazo[4,5-b]pyridine 5′-triphosphate] was tested, and the “Composition of nucleotide incorporated as 5′ neighbor of U: Ap” value (from here on “Composition … of U: Ap”) [1] was 0.02 [0], the “Composition of nucleotide incorporated as 5′ neighbor of U: Gp” value (shortened to “Composition … of U: Gp”) [1] was “n.d. [0]” and the “Composition of nucleotide incorporated as 5′ neighbor of U: Np (Dsp)” value (“Composition … of U: Np (Dsp)” below) [2] was 0.98 [1]. The “Composition of nucleotide incorporated as 5′ neighbor of U: Up” value (“Composition … of U: Up” below) [2] was 1.00 [1], the “Composition of nucleotide incorporated as 5′ neighbor of U: Cp” value (from here on “Composition … of U: Cp”) (Entry 14, template temp35Pa-4, natural NTP 1 mM, Ds 1 mM, theoretical [2]) was 1.99 [2] and the “Composition … of U: Ap” value [3] was 0.01 [0]. The “Composition … of U: Gp” value [3] was “n.d. [0]”, the “Composition … of U: Np (Dsp)” value [4] was 0.99 [1] and the “Composition … of U: Up” value [4] was 1.01 [1]. The “Composition … of U: Cp” value (Entry 15, template temp35Pa-4, natural NTP 1 mM, Ds 3 mM, theoretical [2]) was 1.99 [2], the “Composition … of U: Ap” value [5] was 0.05 [0] and the “Composition … of U: Gp” value [5] was “n.d. [0]”. For the same compound, the “Composition … of U: Np (Dsp)” value [6] was 0.94 [1], the “Composition … of U: Up” value [6] was 1.02 [1] and the “Composition … of U: Cp” value (Entry 16, template temp35Pa′-4, natural NTP 1 mM, Ds 1 mM, theoretical [2]) was 1.98 [2]. The “Composition … of U: Ap” value [7] was 0.02 [0], the “Composition … of U: Gp” value [7] was “n.d. [0]” and the “Composition … of U: Np (Dsp)” value [8] was 0.96 [1]. For the same compound, the “Composition … of U: Up” value [8] was 1.02 [1], the “Composition … of U: Cp” value (Entry 17, template temp35Pa′-4, natural NTP 1 mM, Ds 3 mM, theoretical [2]) was 1.99 [2] and the “Composition … of U: Ap” value [9] was 0.01 [0]. The “Composition … of U: Np (Dsp)” value [9] was “n.d. [0]”, the “Composition … of U: Gp” value [10] was 0.98 [1] and the “Composition … of U: Up” value [10] was 1.00 [1]. The “Composition … of U: Cp” value (Entry 18, template temp35C-4, natural NTP 1 mM, Ds 1 mM, theoretical [2]) was 2.01 [2], the “Composition … of U: Ap” value [11] was 0.01 [0] and the “Composition … of U: Np (Dsp)” value [11] was “n.d. [0]”. The “Composition … of U: Gp” value [12] was 0.97 [1], the “Composition … of U: Up” value [12] was 1.00 [1] and the “Composition … of U: Cp” value (Entry 19, template temp35C-4, natural NTP 1 mM, Ds 3 mM, theoretical [2]) was 2.03 [2]. The “Composition … of U: Gp” value [13] was “n.d. [0]”, the “Composition … of U: Np (Dsp)” value [13] was “n.d. [0]” and the “Composition … of U: Ap” value [14] was 0.99 [1]. The “Composition … of U: Up” value [14] was 1.02 [1], the “Composition … of U: Cp” value (Entry 20, template temp35T-4, natural NTP 1 mM, Ds 1 mM, theoretical [2]) was 1.99 [2] and the “Composition … of U: Gp” value [15] was “n.d. [0]”. The “Composition … of U: Np (Dsp)” value [15] was “n.d. [0]”, the “Composition … of U: Ap” value [16] was 0.99 [1] and the “Composition … of U: Up” value [16] was 1.01 [1]. The “Composition … of U: Cp” value (Entry 21, template temp35T-4, natural NTP 1 mM, Ds 3 mM, theoretical [2]) was 2.00 [2], the “Composition of nucleotide incorporated as 5′ neighbor of A: Up” value (shortened to “Composition … of A: Up”) (Entry 28, template DNA13, natural NTP 2 mM, Ds 2 mM, theoretical [0]) was 0.05 [0] and the “Composition of nucleotide incorporated as 5′ neighbor of A: Np (Dsp)” value (“Composition … of A: Np (Dsp)” below) (Entry 28, template DNA13, natural NTP 2 mM, Ds 2 mM, theoretical [1]) was 0.96 [1]. The “Composition of nucleotide incorporated as 5′ neighbor of A: Ap” value (“Composition … of A: Ap” below) (Entry 28, template DNA13, natural NTP 2 mM, Ds 2 mM, theoretical [5]) was 5.04 [5], the “Composition of nucleotide incorporated as 5′ neighbor of A: Gp” value (from here on “Composition … of A: Gp”) (Entry 28, template DNA13, natural NTP 2 mM, Ds 2 mM, theoretical [6]) was 6.02 [6] and the “Composition of nucleotide incorporated as 5′ neighbor of A: Cp” value (shortened to “Composition … of A: Cp”) (Entry 28, template DNA13, natural NTP 2 mM, Ds 2 mM) was 6.93 [7]. The “Composition … of A: Up” value (Entry 29, template DNA14, natural NTP 2 mM, Ds 2 mM, theoretical [0]) was 0.03 [0], the “Composition … of A: Np (Dsp)” value (Entry 29, template DNA14, natural NTP 2 mM, Ds 2 mM, theoretical [1]) was 0.96 [1] and the “Composition … of A: Ap” value [17] was 6.13 [6]. The “Composition … of A: Gp” value [17] was 5.96 [6], the “Composition … of A: Cp” value (Entry 29, template DNA14, natural NTP 2 mM, Ds 2 mM) was 6.93 [7] and the “Composition … of A: Np (Dsp)” value (Entry 31, template DNAcont4, natural NTP 2 mM, Ds 2 mM, theoretical [0]) was 0.02 [0]. For the same compound, the “Composition … of A: Up” value (Entry 31, template DNAcont4, natural NTP 2 mM, Ds 2 mM, theoretical [1]) was 1.09 [1], the “Composition … of A: Ap” value [18] was 6.10 [6] and the “Composition … of A: Gp” value [18] was 5.98 [6]. The “Composition … of A: Cp” value (Entry 31, template DNAcont4, natural NTP 2 mM, Ds 2 mM) was 6.83 [7], the “Composition … of U: Np (Dsp)” value (Entry 36, template DNA13, natural NTP 2 mM, Ds 2 mM, theoretical [0]) was “n.d. [0]” and the “Composition … of U: Ap” value (Entry 36, template DNA13, natural NTP 2 mM, Ds 2 mM, theoretical [2]) was 2.00 [2]. The “Composition … of U: Gp” value [19] was 3.97 [4], the “Composition … of U: Up” value [19] was 4.03 [4] and the “Composition … of U: Cp” value (Entry 36, template DNA13, natural NTP 2 mM, Ds 2 mM, theoretical [5]) was 4.99 [5]. For the same compound, the “Composition … of U: Np (Dsp)” value (Entry 37, template DNA14, natural NTP 2 mM, Ds 2 mM, theoretical [0]) was 0.01 [0], the “Composition … of U: Ap” value (Entry 37, template DNA14, natural NTP 2 mM, Ds 2 mM, theoretical [2]) was 1.99 [2] and the “Composition … of U: Cp” value [20] was 4.02 [4]. For the same compound, the “Composition … of U: Gp” value [20] was 3.91 [4], the “Composition … of U: Up” value [20] was 4.08 [4] and the “Composition … of U: Np (Dsp)” value (Entry 39, template DNAcont4, natural NTP 2 mM, Ds 2 mM, theoretical [0]) was 0.01 [0]. For the same compound, the “Composition … of U: Ap” value (Entry 39, template DNAcont4, natural NTP 2 mM, Ds 2 mM, theoretical [2]) was 1.99 [2], the “Composition … of U: Gp” value [21] was 3.95 [4] and the “Composition … of U: Up” value [21] was 4.05 [4]. For the same compound, the “Composition … of U: Cp” value (Entry 39, template DNAcont4, natural NTP 2 mM, Ds 2 mM, theoretical [5]) was 5.01 [5].
